Data on 1 molecule can be found in publication PMC6934184, “Selective DNA-PKcs inhibition extends the therapeutic index of localized radiotherapy and chemotherapy” (The Journal of Clinical Investigation, 2019).

For this assay, the target named is T1, SRMS (Srm) (Homo sapiens, UniProt Q9H3Y6).
T1 construct: purchased Thermo Fisher Scientific (Life Technologies) SelectScreen
Put plainly: SelectScreen Z'LYTE. The format is biochemical. An outline of the steps:
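SelectScreen broad panel; activity (Z'LYTE, Adapta) plus binding formats. ATP: Km app for CSF1R Z'LYTE; 10 for CAMK1 Adapta. Readout = % per kinase.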

T1 sequence (Q9H3Y6 whole entry): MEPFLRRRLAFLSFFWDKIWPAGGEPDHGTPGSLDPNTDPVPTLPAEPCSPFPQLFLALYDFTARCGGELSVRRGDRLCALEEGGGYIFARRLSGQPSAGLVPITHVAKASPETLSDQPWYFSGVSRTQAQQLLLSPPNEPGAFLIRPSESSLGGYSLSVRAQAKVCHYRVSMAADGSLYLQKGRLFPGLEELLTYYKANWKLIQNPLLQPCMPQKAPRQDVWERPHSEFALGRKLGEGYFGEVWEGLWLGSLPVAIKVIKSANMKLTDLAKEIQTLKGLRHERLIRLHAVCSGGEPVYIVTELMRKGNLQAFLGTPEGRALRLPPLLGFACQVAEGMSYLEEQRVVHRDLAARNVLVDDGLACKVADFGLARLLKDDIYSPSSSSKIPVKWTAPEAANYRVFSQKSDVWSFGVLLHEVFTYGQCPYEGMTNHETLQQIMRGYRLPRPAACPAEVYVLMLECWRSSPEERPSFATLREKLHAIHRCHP

In general, inhibition refers to the change of the read-out against control, counted positive when it falls. Lower therefore signals little suppression. For the molecule `CN(C(=O)CN1CCOCC1)c1ccc2sc3c(-c4cccc5c(=O)cc(N6CC7CCC(C6)O7)oc45)cccc3c2c1` [NU5455], 1 µM produced 7.5% inhibition.
